Test results taken from patent US10336759B2, “Salts and processes of preparing a PI3K inhibitor” (Incyte Corporation, priority 2015, dated 2019).

Columns and labels:
Type in all cases: biochemical
PI3Kδ = PI3Kδ (Homo sapiens (Human), UniProt O00329); experiment: PI3K Enzyme Assay (Example A2), PI3Kδ; conditions: assay of Example A2, 1000 μM ATP
Description: (§1) PI3K isoforms α, β, δ and γ are purchased from Millipore (Bedford, Mass.).
(§2) The kinase reactions are conducted in clear-bottom 96-well plate from Thermo Fisher Scientific in a final volume of 24 μL. Inhibitors are first diluted serially in DMSO and added to the plate wells before the addition of other reaction components. The final concentration of DMSO in the assay is 0.5%. […] The reaction mixture is prepared containing 50 μM PIP2, kinase and varying concentration of inhibitors. […] Reactions are incubated for 180 minutes and terminated by the addition of 100 μL of 1 M potassium phosphate pH 8.0, 30 mM EDTA quench buffer. A 100 μL aliquot of the reaction solution are then transferred to 96-well Millipore MultiScreen IP 0.45 μm PVDF filter plate (The filter plate is prewetted with 200 μL 100% ethanol, distilled water, and 1 M potassium phosphate pH 8.0, respectively). […] After drying by aspiration and blotting, the plate is air dried in an incubator at 37° C. overnight. Packard TopCount adapter (Millipore) is then attached to the plate followed with addition of 120 μL Microscint 20 scintillation cocktail (Perkin Elmer) in each well. After the plate sealing, the radioactivity of the product is determined by scintillation counting on Topcount (Perkin-Elmer). […]

PI3Kα = PI3Kα (Homo sapiens (Human), UniProt P42336); experiment: PI3K Enzyme Assay (Example A2), PI3Kα; conditions: assay of Example A2, 1000 μM ATP
Description: as §1, §2

PI3Kβ = PI3Kβ (Homo sapiens (Human), UniProt P42338); experiment: PI3K Enzyme Assay (Example A2), PI3Kβ; conditions: assay of Example A2, 1000 μM ATP
Description: as §1, §2

PI3Kγ = PI3Kγ (Homo sapiens (Human), UniProt P48736); experiment: PI3K Enzyme Assay (Example A2), PI3Kγ; conditions: assay of Example A2, 1000 μM ATP
Description: as §1, §2

PI3Kδ (p110δ/p85α) = PI3Kδ (p110δ/p85α) (Homo sapiens (Human), UniProt O00329); experiment: PI3Kδ Scintillation Proximity Assay (Example A3); conditions: assay of Example A3, 20 μM ATP, 20 μM PIP2
Description: The kinase reaction was conducted in polystyrene 384-well matrix white plate from Thermo Fisher Scientific in a final volume of 25 μL. Inhibitors were first diluted serially in DMSO and added to the plate wells before the addition of other reaction components. The final concentration of DMSO in the assay was 0.5%. The PI3K assays were carried out at room temperature in 20 mM MOPS, pH 6.7, 10 mM MgCl2, 5 mM DTT and CHAPS 0.03%. […] IC50 determination was performed by fitting the curve of percent control activity versus the log of the inhibitor concentration using the GraphPad Prism 3.0 software.

PI3Kα, sequence (P42336 whole entry): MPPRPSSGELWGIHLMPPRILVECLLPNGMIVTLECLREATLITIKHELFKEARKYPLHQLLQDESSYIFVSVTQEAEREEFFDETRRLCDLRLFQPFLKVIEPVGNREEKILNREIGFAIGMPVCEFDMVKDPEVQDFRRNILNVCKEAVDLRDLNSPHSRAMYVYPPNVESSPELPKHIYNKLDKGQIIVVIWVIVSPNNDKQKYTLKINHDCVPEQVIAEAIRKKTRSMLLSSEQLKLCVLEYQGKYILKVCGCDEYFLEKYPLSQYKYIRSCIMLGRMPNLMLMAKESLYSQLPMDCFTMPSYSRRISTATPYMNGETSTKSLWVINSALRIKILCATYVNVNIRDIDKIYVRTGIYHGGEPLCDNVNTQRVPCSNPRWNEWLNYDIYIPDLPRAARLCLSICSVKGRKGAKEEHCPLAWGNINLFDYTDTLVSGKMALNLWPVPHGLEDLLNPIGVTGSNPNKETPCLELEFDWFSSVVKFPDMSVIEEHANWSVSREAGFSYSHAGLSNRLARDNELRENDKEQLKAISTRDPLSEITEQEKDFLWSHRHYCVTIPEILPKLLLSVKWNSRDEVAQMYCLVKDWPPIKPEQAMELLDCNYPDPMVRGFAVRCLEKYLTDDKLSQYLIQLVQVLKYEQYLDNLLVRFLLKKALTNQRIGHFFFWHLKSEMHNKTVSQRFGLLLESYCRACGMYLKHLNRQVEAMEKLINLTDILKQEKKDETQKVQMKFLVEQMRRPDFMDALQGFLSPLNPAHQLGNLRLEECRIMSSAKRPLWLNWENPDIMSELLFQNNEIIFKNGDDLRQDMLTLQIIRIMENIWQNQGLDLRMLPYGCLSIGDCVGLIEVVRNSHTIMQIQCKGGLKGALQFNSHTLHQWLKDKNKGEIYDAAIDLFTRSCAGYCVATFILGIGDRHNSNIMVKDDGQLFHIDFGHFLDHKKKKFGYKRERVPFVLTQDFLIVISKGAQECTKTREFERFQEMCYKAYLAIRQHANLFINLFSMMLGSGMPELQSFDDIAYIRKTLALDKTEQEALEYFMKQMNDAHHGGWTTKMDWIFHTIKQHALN
PI3Kα, sequence (P27986 whole entry partner): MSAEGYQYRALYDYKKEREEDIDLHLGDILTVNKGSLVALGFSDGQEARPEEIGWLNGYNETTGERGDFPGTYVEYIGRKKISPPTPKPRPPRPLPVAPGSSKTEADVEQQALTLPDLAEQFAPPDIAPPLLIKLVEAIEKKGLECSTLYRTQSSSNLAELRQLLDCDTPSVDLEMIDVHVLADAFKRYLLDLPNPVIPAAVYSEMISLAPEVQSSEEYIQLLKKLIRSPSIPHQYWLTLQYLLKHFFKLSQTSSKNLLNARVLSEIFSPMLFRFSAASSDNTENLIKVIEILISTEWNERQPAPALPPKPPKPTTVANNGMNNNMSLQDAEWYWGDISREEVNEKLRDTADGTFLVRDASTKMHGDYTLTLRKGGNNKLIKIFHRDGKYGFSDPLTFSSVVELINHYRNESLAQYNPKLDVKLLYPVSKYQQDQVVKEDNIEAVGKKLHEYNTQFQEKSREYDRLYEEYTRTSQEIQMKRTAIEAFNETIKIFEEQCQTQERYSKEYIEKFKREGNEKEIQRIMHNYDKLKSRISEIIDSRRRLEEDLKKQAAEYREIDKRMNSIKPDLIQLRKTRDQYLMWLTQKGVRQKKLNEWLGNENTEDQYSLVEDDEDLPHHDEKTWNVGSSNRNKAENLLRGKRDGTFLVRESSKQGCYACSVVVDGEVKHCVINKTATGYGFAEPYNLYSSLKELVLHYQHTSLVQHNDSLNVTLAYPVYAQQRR
PI3Kδ (p110δ/p85α), sequence (O00329 whole entry): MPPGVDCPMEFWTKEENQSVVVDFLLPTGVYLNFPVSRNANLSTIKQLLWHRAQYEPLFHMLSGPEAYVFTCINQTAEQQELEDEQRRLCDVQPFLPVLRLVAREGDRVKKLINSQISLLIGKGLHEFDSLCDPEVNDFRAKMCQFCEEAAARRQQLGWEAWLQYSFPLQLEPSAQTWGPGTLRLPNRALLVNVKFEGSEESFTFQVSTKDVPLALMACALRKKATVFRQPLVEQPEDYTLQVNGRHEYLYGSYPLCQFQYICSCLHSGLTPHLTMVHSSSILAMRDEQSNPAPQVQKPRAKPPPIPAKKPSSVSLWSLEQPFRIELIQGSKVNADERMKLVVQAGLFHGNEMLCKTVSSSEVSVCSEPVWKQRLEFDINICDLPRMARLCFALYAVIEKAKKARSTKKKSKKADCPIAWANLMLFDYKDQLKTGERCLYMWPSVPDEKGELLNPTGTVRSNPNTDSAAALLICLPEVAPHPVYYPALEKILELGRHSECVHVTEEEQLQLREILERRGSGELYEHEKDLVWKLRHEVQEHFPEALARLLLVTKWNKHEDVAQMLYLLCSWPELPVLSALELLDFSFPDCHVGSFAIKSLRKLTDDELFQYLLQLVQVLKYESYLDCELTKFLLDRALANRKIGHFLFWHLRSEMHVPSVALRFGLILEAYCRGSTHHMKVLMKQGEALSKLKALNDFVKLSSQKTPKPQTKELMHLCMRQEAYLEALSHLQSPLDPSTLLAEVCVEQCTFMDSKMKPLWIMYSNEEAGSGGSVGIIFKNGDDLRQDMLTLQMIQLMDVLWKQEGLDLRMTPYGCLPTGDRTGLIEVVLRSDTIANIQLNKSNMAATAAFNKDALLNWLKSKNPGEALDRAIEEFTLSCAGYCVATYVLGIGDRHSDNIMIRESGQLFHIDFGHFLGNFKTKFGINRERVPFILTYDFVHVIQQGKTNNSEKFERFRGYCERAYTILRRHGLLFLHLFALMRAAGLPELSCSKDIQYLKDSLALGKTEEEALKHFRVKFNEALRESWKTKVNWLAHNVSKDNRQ
PI3Kδ (p110δ/p85α), sequence (P27986 whole entry partner): as the sequence (P27986 whole entry partner) above
PI3Kδ, sequence (O00329 whole entry, canonical isoform): as the sequence (O00329 whole entry) above
PI3Kδ, sequence (P27986 whole entry partner, canonical isoform): as the sequence (P27986 whole entry partner) above
PI3Kγ, sequence (P48736 whole entry): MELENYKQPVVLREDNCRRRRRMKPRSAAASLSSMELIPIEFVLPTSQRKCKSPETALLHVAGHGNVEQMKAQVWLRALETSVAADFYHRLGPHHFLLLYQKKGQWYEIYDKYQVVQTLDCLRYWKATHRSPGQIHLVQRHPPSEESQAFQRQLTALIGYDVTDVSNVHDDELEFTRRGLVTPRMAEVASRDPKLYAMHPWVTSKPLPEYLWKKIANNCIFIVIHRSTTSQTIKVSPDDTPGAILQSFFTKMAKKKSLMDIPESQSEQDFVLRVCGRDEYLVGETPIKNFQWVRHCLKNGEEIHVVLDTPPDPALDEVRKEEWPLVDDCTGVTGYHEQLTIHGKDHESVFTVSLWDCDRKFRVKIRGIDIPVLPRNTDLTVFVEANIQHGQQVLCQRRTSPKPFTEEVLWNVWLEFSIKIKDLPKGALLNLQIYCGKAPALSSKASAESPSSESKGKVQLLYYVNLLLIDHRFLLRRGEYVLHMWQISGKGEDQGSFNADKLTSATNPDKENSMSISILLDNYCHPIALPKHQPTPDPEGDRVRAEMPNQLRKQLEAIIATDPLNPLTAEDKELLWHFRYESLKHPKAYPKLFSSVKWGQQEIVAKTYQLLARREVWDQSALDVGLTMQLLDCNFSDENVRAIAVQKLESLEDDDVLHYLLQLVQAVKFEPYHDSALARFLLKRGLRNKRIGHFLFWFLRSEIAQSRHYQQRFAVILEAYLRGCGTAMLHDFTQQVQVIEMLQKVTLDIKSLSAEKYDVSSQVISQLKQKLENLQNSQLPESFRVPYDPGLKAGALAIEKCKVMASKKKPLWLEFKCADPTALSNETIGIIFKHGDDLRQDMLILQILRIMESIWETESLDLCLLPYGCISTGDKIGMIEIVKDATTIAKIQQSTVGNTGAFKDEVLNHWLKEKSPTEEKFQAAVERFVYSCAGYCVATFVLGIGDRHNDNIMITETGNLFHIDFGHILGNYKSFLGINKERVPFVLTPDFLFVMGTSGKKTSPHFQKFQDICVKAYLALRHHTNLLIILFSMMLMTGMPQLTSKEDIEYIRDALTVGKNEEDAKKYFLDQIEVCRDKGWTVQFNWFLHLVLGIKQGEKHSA

selectivity for PI3Kδ (PI3Kδ)	fold selectivity for PI3Kδ over PI3Kα (PI3Kα)	fold selectivity for PI3Kδ over PI3Kβ (PI3Kβ)	fold selectivity for PI3Kδ over PI3Kγ (PI3Kγ)	IC50 (PI3Kδ (p110δ/p85α))	SMILES
selective inhibitor for PI3Kδ	> 100 fold	> 100 fold	> 100 fold	–	CCOc1c([C@H](C)n2nc(C)c3c(N)ncnc32)cc(Cl)c(F)c1[C@@H]1CNC(=O)C1.Cl [(R)-4-(3-((S)-1-(4-amino-3-methyl-1H-pyrazolo[3,4-d]pyrimidin-1-yl)ethyl)-5-chloro-2-ethoxy-6-fluorophenyl)pyrrolidin-2-one hydrochloride]
–	–	–	–	≤ 10 nM	CCOc1c([C@H](C)n2nc(C)c3c(N)ncnc32)cc(Cl)c(F)c1[C@@H]1CNC(=O)C1 [compound of Formula I, (R)-4-(3-((S)-1-(4-amino-3-methyl-1H-pyrazolo[3,4-d]pyrimidin-1-yl)ethyl)-5-chloro-2-ethoxy-6-fluorophenyl)pyrrolidin-2-one]
